Experimental data reported in patent US4263309A, “Polycyclic triazoles used to inhibit allergic responses” (Beecham Group Limited, priority 1977, dated 1981).

Assays:
[1] = tested on: passive cutaneous anaphylaxis (PCA), ovalbumin challenge; assay: Passive cutaneous anaphylaxis (PCA) in rats; assay type: in vivo, Male Wistar rats; settings: S.C., PBS with NaHCO3, rat
Protocol: Serum containing heat labile homocytotropic anitbody was raised in rats to crystallized ovalbumin XOA by the method of Mota (I. Mota, Immunology, 7,681 [1964]) using Bordettela pertussis vaccine as adjuvant.
Passive cutaneous anaphylaxis (PCA) was carried out by a method based on that of Ovary and Bier, (A. Ovary and O. G. Bier, Proc. Soc. Exp. Biol. Med. 81, 584, [1952]) as modified by Goose and Blair. (Immunology 16, 749 (1969).
Male Wistar rats of 250-300 g. were given 0.1 ml. of each of six twofold serial dilutions of pooled antiserum in 0.9% saline injected intradermally into separate sites on their shaved backs. Later (72 hrs.) the animals were challenged by intravenous injection of 0.3 ml. of a 1% solution of ovalbumin in an isotonic solution of saline buffered with 0.05 M, pH 7.2, Sorenson Buffer (PBS), mixed with 0.2 ml. of a 5% solution of Pontamine Sky Blue (6BX C.I. 24410, Raymond A. Lamb, London) in isotonic saline. The rats were killed after 20 min and the diameter of the blue wheals at the antibody injection sites was measured on the outer surface of the skin. The starting dilution of the serum was adjusted so that there was no response, after challenge, at the injection site of the highest dilution and a maximum response at the lowest dilutions. Typically six twofold serial dilutions of the serum from 1/4 to 1/128 were used.
Compounds were tested for their ability to reduce the diameter of the wheals at those intradermal sites which in control animals gave less than maximum response. Each dose of the compound was administered to six rats at a measured time prior to intravenous challenge with ovalbumin. Control groups of six rats were given the same volume of carrier fluid (0.2 ml, 100 g^-1) at the same time prior to challenge.
The results were calculated as follows: % inhibition of PCA=100 (1-a/b) where a=the sum of the diameters of the wheals produced in the test animal at the sites of antibody dilutions as used in control groups and b=the mean sum of the diameters of the wheals produced in the control group of animals at those antibody sites where at least five out of six of the animals gave less than maximum response. A typical variations in the control group of animals was SEM±6%.

Oral LD50 toxicity = assay type: in vivo; settings: rat, in vivo, Charles River Sprage Dawley CD strain male rats
Text: (§1) Toxicity: Oral LD50 of the compound of example 1(d) in Charles River Sprage Dawley CD strain Male Rats: 980 mgkg^-1. LD50 data confidence limits: 95%, 548-1,413 mgkg^-1.

[2] = tested on: Charles River Sprage Dawley CD strain Male Rats; assay: Oral LD50 toxicity; assay type: in vivo; settings: 95% confidence limits
Text: as §1

Structure (SMILES): O=C1c2cccc([N+](=O)[O-])c2C(=O)c2[nH]nnc21 [Example 4, 4,9-Dihydro-4,9-dioxo-5-nitro-1H-naphtho-[2,3-d]-triazole]
- % Inhib PCA ([1]; 10 mins, 10 mg/kg): 44%
- % Inhib PCA ([1]; 30 mins, 10 mg/kg): 19%

Structure (SMILES): COc1ccc2c(c1)C(=O)c1nn[nH]c1C2=O [3(e), 4,9-Dihydro-4,9-dioxo-6-methoxy-1H-naphtho[2,3-d]-triazole]
- % Inhib PCA ([1]; 10 mins, 20 mg/kg): 61%
- % Inhib PCA ([1]; 30 mins, 20 mg/kg): 34%

Structure (SMILES): O=C1c2ccc(F)cc2C(=O)c2[nH]nnc21 [5(e), 4,9-Dihydro-4,9-dioxo-6-fluoro-1H-naphtho[2,3-d]-triazole]
- % Inhib PCA ([1]; 10 mins, 20 mg/kg): 90%
- % Inhib PCA ([1]; 30 mins, 20 mg/kg): 27%

Structure (SMILES): Cc1ccc2c(c1)C(=O)c1nn[nH]c1C2=O [2(d), 4,9-Dihydro-4,9-dioxo-6methyl-1H-naphtho[2,3-d]-triazole]
- % Inhib PCA ([1]; 10 mins, 20 mg/kg): 73%
- % Inhib PCA ([1]; 30 mins, 20 mg/kg): 57%

Structure (SMILES): Cc1cc2c(cc1C)C(=O)c1[nH]nnc1C2=O [1(d), 4,9-dihydro-6,7-dimethyl-4,9-dioxo-1H-naphtho[2,3-d]-triazole]
- % Inhib PCA ([1]; 5 mins, 0.1 mg/kg): 30%
- % Inhib PCA ([1]; 5 mins, 0.2 mg/kg): 54%
- % Inhib PCA ([1]; 5 mins, 0.4 mg/kg): 61%
- % Inhib PCA ([1]; 5 mins, 0.8 mg/kg): 86%
- LD50 (Oral LD50 toxicity): 980 mg/kg
- LD50 data confidence limits: 95% [2]: 548-1,413 mgkg^-1

Structure (SMILES): Cc1cc2c(c([N+](=O)[O-])c1C)C(=O)c1nn[nH]c1C2=O [Example 6, 4,9-Dihydro-6,7-dimethyl-4,9-dioxo-5-nitronaphtho[2,3-d]-triazole]
- % Inhib PCA ([1]; 10 mins, 1 mg/kg): 66%
- % Inhib PCA ([1]; 30 mins, 1 mg/kg): 28%

Structure (SMILES): O=C1c2ccccc2C(=O)c2[nH]nnc21 [Example 8, 4,9-Dihydro-4,9-dioxo-1H-naphtho[2,3-d]-triazole]
- % Inhib PCA ([1]; 5 mins, 1 mg/kg): 39%
- % Inhib PCA ([1]; 5 mins, 2 mg/kg): 82%
